Laboratory results published in publication PMC9782626, “Copper(II) Complexes of 5–Fluoro–Salicylaldehyde: Synthesis, Characterization, Antioxidant Properties, Interaction with DNA and Serum Albumins” (Molecules, 2022).

Target: T1, human serum albumin (HSA) (Homo sapiens, UniProt P02768)
T1 construct: purchased Sigma–Aldrich Co
Assay: Albumin binding by tryptophan fluorescence quenching (HSA)
Conditions: for ΔΙ/Ιο, quenching of the HSA fluorescence: HSA 3 μM, λex 295 nm; for HSA-binding constant K: Scatchard equation; for HSA-quenching constant kq: from Stern–Volmer plots, τo 10^-8 s; for % relative HSA fluorescence emission intensity I/Io remaining (% of initial): final value, pH 7.0
Excerpt: Serum albumins are among the important proteins of the circulatory system. Their main role is to carry drugs and other bioactive small molecules through the bloodstream. BSA and HSA are structurally homologous albumins, having two and one tryptophan residues, respectively. The tryptophan residues of both albumins are responsible for the intense fluorescence emission band with λem,max = 342 nm for BSA and 350 nm for HSA, respectively, when their solutions are excited at 295 nm. […] The inner-filter effect was calculated with Equation (S4) and it was found too low to affect the measurements.
When the compounds were added to a solution of the albumins (3 μM), a significant quenching of the BSA (λem = 342 nm) and HSA (λem = 350 nm) fluorescence emission bands was observed (Figure 7) which was more pronounced in the case of BSA (Table 7 and Figure 8). […] The observed quenching may be ascribed to changes in the tryptophan environment of SA resulting from possible denaturation of their secondary structure, induced by the binding of the complexes to the albumins. […]
Io =1+ k τ [Q] =1+ K [Q] […]
S3Albumin -binding studies
In order to investigate if the compounds can bind to carrier proteins like serum albumins, we carried out albumin binding study by tryptophan fluorescence quenching experiments using bo vine serum albumin (BSA, 3 μM) in buffer (containing 15 mM trisodium citrate and 150 mM NaCl at pH 7.0). The quenching of the emission intensity of tryptophan residues of BSA at 343 nm was monitored using the co mpounds as que ncher s with increasing concentration [S4]. The fluo rescence emission spectra of the compounds were also recorded with λex = 295 nm. No fluorescence emission band was recorded and thus it was not related to the compounds . The influence of the inner-filter effect [S6] on the measurements wa s evaluated by equation S4.
Where Icorr = corrected intensity, Imeas = the measured intensity, c = the concentration of the quencher, d = the cuvette (1 cm), ε (λexc ) and ε(λe m) = the ε of the quencher at the excitation and the emission wavelength, respectively, as calculated from the UV-vis spectra of the […]
The Stern-Volmer and Scatchard graphs are used to study the interaction of the compounds with serum albumins. According to Stern-Volmer quenching equation (eq.
S2), where Io = the initial tryptophan fluorescence intensity of SA, I = the tryptophan fluorescence intensity of SA after the addition of the quencher, kq = the quenching […]
constant, KSV = the Stern-Volmer constant, τo = the average lifetime of SA without the quencher, and, tak ing as fluorescence lifet ime (τo) of tryptophan in SA at around 10-8 s [S 4] , KSV (in M -1) can be obtained by the slope of the diagram Io/I versus [compound] (Stern-Volmer plots), and subsequently the quenching (kq, in M -1s-1) may be calculated from eq.
From the Scatchard equation (eq. S5): […]
where n is the number of binding sites per albumin and K is the SA-binding constant (K, in M -1) is calculated from the slope in plots (ΔI/Io)/[complex] versus ΔI/Io and n is given by the ratio of y intercept to the slope [S7].
S1 Kontogiorgis, C.; Hadjipavlou–Lit ina, D. Biological Evaluat ion of Several Coumarin Derivatives Designed as Possible Anti–inflammatory/Antioxidant Agents. J. Enz. Inhib.
S2 Ruch, R.J.; Cheng, C.; Klaunig, J.E. Prevention of cytotoxicity and inhibition of intercellular communication by antioxidant catechins isolated from Chinese green tea.
S3 Wolfe, A.; Shimer, G.; Meehan, T. Polycyclic Aromatic Hydrocarbons Physically Intercalate into Duplex Regions of Denatured DNA. Biochemistry 1987, 26, 6392–6396.
S4 Lakowicz, J.R. Principles of Fluorescence Spectroscopy , 3rd ed.; Plenum Press: New […]
S5 Heller, D.P.; Greenstock, C.L. Fluorescence lifetime analysis of DNA intercalated ethid ium bromide and quench ing by free dye. Biophys. Chem.1994,50, 305–312.
S6 Stella, L.; Capodilupo, A.L.; Bietti, M. A reassessment of the association between […]
azulene and [60]fullerene. […]

T1 sequence (P02768 25-609): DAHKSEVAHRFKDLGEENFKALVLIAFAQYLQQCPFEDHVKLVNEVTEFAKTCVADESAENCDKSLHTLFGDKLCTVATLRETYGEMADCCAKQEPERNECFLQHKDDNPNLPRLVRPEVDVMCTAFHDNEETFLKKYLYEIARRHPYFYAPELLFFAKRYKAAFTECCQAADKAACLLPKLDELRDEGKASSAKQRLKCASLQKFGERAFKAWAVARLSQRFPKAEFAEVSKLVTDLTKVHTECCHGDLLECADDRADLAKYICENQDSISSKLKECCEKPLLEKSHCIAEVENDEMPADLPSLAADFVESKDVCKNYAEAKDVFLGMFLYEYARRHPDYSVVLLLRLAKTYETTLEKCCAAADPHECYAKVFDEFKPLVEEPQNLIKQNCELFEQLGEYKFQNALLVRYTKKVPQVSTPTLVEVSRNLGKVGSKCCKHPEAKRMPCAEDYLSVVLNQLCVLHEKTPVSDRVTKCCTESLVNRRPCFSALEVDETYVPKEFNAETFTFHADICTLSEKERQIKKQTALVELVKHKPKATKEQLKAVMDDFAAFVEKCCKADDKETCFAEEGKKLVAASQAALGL

Structure (SMILES)	ΔΙ/Ιο, quenching of the HSA fluorescence [%]	HSA-binding constant K	HSA-quenching constant kq	% relative HSA fluorescence emission intensity I/Io remaining (% of initial) [%]
O=Cc1cc(F)ccc1[O-].O=[N+]([O-])[O-].[Cu+2].c1ccc(-c2ccccn2)nc1 [Complex 5, [Cu(5–F–salo)(bipy)(NO3)]]	63.0	1.31 (±0.05) × 10^6 M^−1	3.01 (±0.10) × 10^12 M^−1 s^−1	
CO.Cc1ccc2ccc3ccc(C)nc3c2n1.O=Cc1cc(F)ccc1[O-].[Cl-].[Cu+2] [Complex 3, [Cu(5–F–salo)(neoc)Cl].CH3OH]	68.5	7.16 (±0.40) × 10^5 M^−1	1.25 (±0.05) × 10^13 M^−1 s^−1	31.5
O=Cc1cc(F)ccc1[O-].[Cl-].[Cu+2].c1ccc(Nc2ccccn2)nc1 [Complex 2, [Cu(5–F–salo)(bipyam)Cl]]	62.7	5.09 (±0.29) × 10^5 M^−1	6.27 (±0.21) × 10^12 M^−1 s^−1	37.3
O=Cc1cc(F)ccc1[O-].O=Cc1cc(F)ccc1[O-].[Cu+2] [Complex 1, [Cu(5–F–salo)2]]	61.3	1.58 (±0.09) × 10^5 M^−1	4.37 (±0.18) × 10^12 M^−1 s^−1	38.7
O=Cc1cc(F)ccc1[O-].O=[N+]([O-])[O-].[Cu+2].c1cnc2c(c1)ccc1cccnc12 [Complex 4, [Cu(5–F–salo)(phen)(NO3)]]	74.6	1.70 (±0.09) × 10^6 M^−1	8.63 (±0.33) × 10^12 M^−1 s^−1	25.5
